Source: article PMC11643578, “Cytotoxic and Antibacterial Cyclodepsipeptides from an Endophytic Fungus Fusarium avenaceum W8” (Molecules, 2024)
≈ marks a conversion by molar mass, not a printed value. Like-named read-outs stand apart in the source and are kept apart here. Square brackets hold non-standard residues; d marks the D form. Peptide text beside a SMILES is read from it. Hica(2S) = CC(C)C[C@H](O)C(=O)O; dHica = CC(C)C[C@@H](O)C(=O)O; βAla = NCCC(=O)O

Tests used:
Assay type in all cases: cell-based
[1] = test system: Saccharomyces cerevisiae; assay: Growth time-OD600 curve at MIC80, S. cerevisiae; settings: compound at its MIC80 concentration, OD600 at 8-32 h, 37 °C, n = 3
Protocol: (§1) The strain was grown to OD600 = 0.3 in LB broth medium and diluted 100-fold. Aliquots (200 μL) of the diluted suspensions were placed into 96-well microtiter plates, and compounds 1 and 4 at the concentration of MIC80 were cultured in the plate at 37 °C. The absorbance value was measured at OD600 at 8 h, 12 h, 16 h, 20 h, 24 h, and 32 h.

[2] = test system: Staphylococcus aureus; assay: Antimicrobial activity assay (MIC80, OD600), S. aureus; settings: LB broth, 128-4 μg/mL, 37 °C, 24 h; for MIC80 against S. aureus: 96-well plate
Protocol: (§2) Strains of S. aureus and S. cerevisiae were used for the antimicrobial activity assay, and compounds 1–7 were evaluated as described. We resuscitated the bacteria and centrifuge them at 8000 rpm for 5 min at 4 °C; we then washed the precipitate twice with PBS. We diluted it with Luria-Bertani (LB) broth medium to the concentration of 5 × 10^5 CFU/mL. Strains were grown to OD600 = 0.3 in LB broth medium and diluted 400-fold. Aliquots (200 μL) of the diluted suspensions were placed into 96-well microtiter plates with isolated compounds at concentrations of 128, 64, 32, 16, 8, and 4 μg/mL and cultured at 37 °C for 24 h. Furazolidone was the positive control and DMSO was used as the negative control. The OD600 values were used to test the antimicrobial rate for MIC80.

[3] = test system: Staphylococcus aureus; assay: Growth time-OD600 curve at MIC80, S. aureus; settings: compound at its MIC80 concentration, OD600 at 8-32 h, 37 °C, n = 3
Protocol: as §1

[4] = test system: Saccharomyces cerevisiae; assay: Antimicrobial activity assay (MIC80, OD600), S. cerevisiae; settings: LB broth, 128-4 μg/mL, 37 °C, 24 h
Protocol: as §2

[5] = test system: A549 human lung adenocarcinoma cell line; assay: MTT cytotoxicity assay, A549; settings: A549 cells, 72 h treatment, absorbance 562 nm (reference 630 nm), read-out: IC50 Values, cytotoxicity against A549
Protocol: (§3) The cytotoxicity of the compound against A549 and NCI-1944 lines was determined by using 3-(4,5-dimethyl-2-thiazolyl)-2,5-diphenyl-2-H-tetrazolium bromide (MTT). The cells were maintained in DMEM containing 10% (v/v) fetal bovine serum (FBS) and 0.4% (v/v) penicillin−streptomycin solution (10,000 units/mL penicillin and 10,000 μg/mL streptomycin, 100X) at 37 °C under 5% CO2. After 24 h of adherent cell growth, different concentrations of the compounds, positive control adriamycin (ADM), and blank control (methanol) were added to 96-well plates. After 72 h, 20 μL of MTT solution was added. The absorbance value (detection wavelength is 562 nm and reference wavelength is 630 nm) was measured on the microplate reader, and the IC50 value of each compound was calculated.

[6] = test system: NCI-H1944 human lung adenocarcinoma cell line; assay: MTT cytotoxicity assay, NCI-H1944; settings: NCI-H1944 cells, 72 h treatment, absorbance 562 nm (reference 630 nm), read-out: IC50 Values, cytotoxicity against NCI-H1944
Protocol: as §3

## CC(C)C[C@@H]1OC(=O)[C@H](Cc2ccccc2)NC(=O)[C@H](Cc2ccccc2)NC(=O)[C@H](Cc2ccccc2)NC(=O)[C@H](Cc2ccc(O)cc2)NC1=O [Compound 1, avenamide A] (cyclo([Hica(2S)]YFFF))
[1]
  growth time curve of S. cerevisiae (in words): exhibited antimicrobial activity against both strains during the measuring time
[2]
  MIC80 against S. aureus: 20.25 µg/mL (≈ 28.2 µM)
[3]
  growth time curve of S. aureus (in words): exhibited antimicrobial activity against both strains during the measuring time

## CC[C@H](C)[C@@H]1NC(=O)[C@H](CC(C)C)NC(=O)[C@H](CC(C)C)NC(=O)CCNC(=O)[C@@H](CC(C)C)OC1=O [Compound 2, avenamide B] (cyclo([dHica][βAla]LLI))
[4]
  antimicrobial activity against S. cerevisiae (in words): did not display strong antimicrobial activity
[2]
  antimicrobial activity against S. aureus (in words): did not display strong antimicrobial activity

## CC(C)[C@H]1C(=O)O[C@H](C(C)C)C(=O)N(C)[C@@H](C(C)C)C(=O)O[C@H](C(C)C)C(=O)N(C)[C@@H](C(C)C)C(=O)O[C@H](C(C)C)C(=O)N1C [Compound 3, enniatin B]
[4]; 96-well plate
  MIC80 against S. cerevisiae: 16.92 µg/mL (≈ 26.4 µM)
[1]
  growth time curve of S. cerevisiae (in words): exhibited antimicrobial activity against both strains during the measuring time
[2]
  MIC80 against S. aureus: 11.08 µg/mL (≈ 17.3 µM)
[3]
  growth time curve of S. aureus (in words): exhibited antimicrobial activity against both strains during the measuring time

## CC[C@H](C)[C@H]1OC(=O)[C@H](C(C)C)N(C)C(=O)[C@@H](C(C)C)OC(=O)[C@H](C(C)C)N(C)C(=O)[C@@H](C(C)C)OC(=O)[C@H](C(C)C)N(C)C1=O [Compound 4, enniatin H]
[4]
  antimicrobial activity against S. cerevisiae (in words): did not display strong antimicrobial activity
[2]
  antimicrobial activity against S. aureus (in words): did not display strong antimicrobial activity

## CC(C)C[C@@H]1NC(=O)[C@H](CC(C)C)NC(=O)[C@H](C(C)C)NC(=O)[C@H](CC(C)C)NC(=O)[C@@H](CC(C)C)NC1=O [Compound 5, cyclo-(L-Leu-L-Leu-D-Leu-L-Leu-L-Val)] (cyclo(LL[dL]LV))
[5]
  IC50: < 50 µM
[6]
  IC50: < 50 µM

## CC[C@H](C)[C@@H]1NC(=O)[C@H](CC(C)C)NC(=O)[C@H](CC(C)C)NC(=O)[C@H](CC(C)C)NC(=O)[C@H](CC(C)C)NC1=O [Compound 6, cyclo-(L-Ile-L-Leu-L-Leu-L-Leu-L-Leu)] (cyclo(ILLLL))
[5]
  IC50: < 50 µM
[6]
  IC50: < 50 µM

## COc1cccc2c1C(=O)c1c(O)c3c(c(O)c1C2=O)C[C@@](O)(C(=O)CO)C[C@@H]3O[C@H]1C[C@H](N)[C@H](O)[C@H](C)O1 [adriamycin, reference compound]
[5]; Homo sapiens
  IC50: 4.26 ± 0.17 µM
[6]; Homo sapiens
  IC50: 4.35 ± 0.27 µM
